This is an account of results in patent publication US7511065B2, “Mixed lineage kinase modulators” (Eli Lilly and Company, priority 2002, dated 2009).

SMILES strings stand for the structures.

The experiment deals with T1, MLK-7 (Homo sapiens, UniProt Q9NYL2).
T1 construct: GST; His tag; made in house; host or cells: Sf9 insect cells (baculovirus, pVL1392)
T1 sequence (Q9NYL2 1-455 isoform Q9NYL2-2): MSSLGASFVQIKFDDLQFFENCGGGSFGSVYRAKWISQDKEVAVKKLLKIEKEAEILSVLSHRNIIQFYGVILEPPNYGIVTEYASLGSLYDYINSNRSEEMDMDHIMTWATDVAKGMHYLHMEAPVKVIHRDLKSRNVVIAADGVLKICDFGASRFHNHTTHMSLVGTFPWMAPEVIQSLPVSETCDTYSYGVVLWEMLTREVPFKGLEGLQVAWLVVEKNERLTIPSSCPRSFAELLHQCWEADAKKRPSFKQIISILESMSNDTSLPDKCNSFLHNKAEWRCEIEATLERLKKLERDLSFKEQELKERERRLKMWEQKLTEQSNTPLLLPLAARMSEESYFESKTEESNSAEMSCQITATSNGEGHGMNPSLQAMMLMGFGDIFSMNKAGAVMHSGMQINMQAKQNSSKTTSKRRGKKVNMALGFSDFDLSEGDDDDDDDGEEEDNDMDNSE
In words: In vitro assay of purified MLK-7 kinase activity (33P transfer from ATP to myelin basic protein). The following applies: recombinant GST-tagged MLK-7 at 1 nm, 30 uM ATP, 5 uM MBP substrate, 2 hours room temperature; read-out: MLK7 IC50. It is filed as biochemical. In outline: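 GST/His-tagged MLK-7 from Sf9 (baculovirus), 1 nM, with 5 uM MBP, 30 uM ATP plus 33P, 5 mM MgCl2, 2 mM DTT, 4% DMSO in 44 mM HEPES pH 7.4; 2 h at room temperature, stopped with phosphoric acid. Filter-bound 33P counted; IC50 for reduced phosphate transfer, Ki via Cheng-Prusoff.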
Usually IC50 stands for the concentration that gives 50% inhibition. In the case of `COc1ccc(-c2ccc3c(-c4c(-c5ccccn5)nn5c4CCC5)ccnc3c2)nn1.O=C(O)C(F)F` [Example 84, 7-(6-Methoxypyridazin-3-yl)-4-(2-Pyridin-2-yl-5,6-dihydro-4H-pyrrolo[1,2-b]pyrazol-3-yl)quinoline Difluoroacetic Acid], the half-maximal inhibitory concentration (IC50) was ≤ 100 nM.

For the compound `O=C(O)C(F)F.c1ccc(-c2nn3c(c2-c2ccnc4cc(-c5ncccn5)ccc24)CCC3)nc1` [Example 85, 4-(2-Pyridin-2-yl-5,6-dihydro-4H-pyrrolo[1,2-b]pyrazol-3-yl)-7-pyrimidin-2-yl-quinoline Difluoroacetic Acid], the IC50 was ≤ 1000 nM.

Consider `NC(=O)CCCc1ccc(-c2ccc3c(-c4c(-c5ccccn5)nn5c4CCC5)ccnc3c2)cc1` [Example 86, 4-{4-[4-(2-Pyridin-2-yl-5,6-dihydro-4H-pyrrolo[1,2-b]pyrazol-3-yl)quinolin-7-yl]phenyl}butyramide Trifluoroacetic Acid], for which the half-inhibitory concentration (IC50) is ≤ 100 nM.

For the compound `O=C(O)C(F)F.c1ccc(-c2nn3c(c2-c2ccnc4cc(-c5nc6ccccc6[nH]5)ccc24)CCC3)nc1` [Example 87, 7-(1H-Benzoimdazol-2-yl)-4-(2-pyridin-2-yl-5,6-dihydro-4H-pyrrolo[1,2-b]pyrazol-3-yl)quinoline Difluoroacetic Acid], the IC50 was ≤ 100 nM.

In the case of `O=C(O)C(F)F.c1ccc(-c2nn3c(c2-c2ccnc4cc(-c5cncnc5)ccc24)CCC3)nc1` [Example 88, 4-(2-pyridin-2-yl-5,6-dihydro-4H-pyrrolo[1,2-b]pyrazol-3-yl)-7-pyrimidin-5-yl-quinoline Difluoroacetic Acid], the IC50 is ≤ 1000 nM.

Consider `Nc1ccc(-c2ccc3c(-c4c(-c5ccccn5)nn5c4CCC5)ccnc3c2)cc1Cl` [Example 90, 2-Chloro-4-[4-(2-pyridin-2-yl-5,6-dihydro-4H-pyrrolo[1,2-b]pyrazol-3-yl)-quinolin-7-yl]-phenylamine Ditrifluoroacetic Acid], for which the IC50 is ≤ 100 nM.

Regarding `Oc1c(F)cc(-c2ccc3c(-c4c(-c5ccccn5)nn5c4CCC5)ccnc3c2)cc1Cl` [Example 91, 2-Chloro-6-fluoro-4-[4-(2-pyridin-2-yl-5,6-dihydro-4H-pyrrolo[1,2-b]pyrazol-3-yl)-quinolin-7-yl]-phenol Trifluoroacetic Acid], the half-maximal inhibitory concentration (IC50) is ≤ 100 nM.

As to `NS(=O)(=O)c1ccc(-c2ccc3c(-c4c(-c5ccccn5)nn5c4CCC5)ccnc3c2)s1` [Example 92, 5-[4-(2-Pyridin-2-yl-5,6-dihydro-4H-pyrrolo[1,2-b]pyrazol-3-yl)-quinolin-7-yl]-thiophene-2-sulfonic acid amide Trifluoroacetic Acid], the IC50 is ≤ 100 nM.

Consider `Oc1cc(-c2ccc3c(-c4c(-c5ccccn5)nn5c4CCC5)ccnc3c2)cc(F)c1F` [Example 93, 2,3-Difluoro-5-[4-(2-pyridin-2-yl-5,6-dihydro-4H-pyrrolo[1,2-b]pyrazol-3-yl)-quinolin-7-yl]-phenol Trifluoroacetic Acid], for which the IC50 is ≤ 100 nM.

`Nc1nc2ccc(-c3ccc4c(-c5c(-c6ccccn6)nn6c5CCC6)ccnc4c3)cc2s1` [Example 94, 6-[4-(2-Pyridin-2-yl-5,6-dihydro-4H-pyrrolo[1,2-b]pyrazol-3-yl)-quinolin-7-yl]-benzothiazol-2-yl amine Tris trifluoroacetic Acid]: the IC50 is ≤ 100 nM.

Turning to `NS(=O)(=O)c1ccc(-c2ccc3c(-c4c(-c5ccccn5)nn5c4CCC5)ccnc3c2)cc1` [Example 95, 4-[4-(2-Pyridin-2-yl-5,6-dihydro-4H-pyrrolo[1,2-b]pyrazol-3-yl)-quinolin-7-yl]-benzenesulfonamide], the concentration for half-maximal inhibition (IC50) is ≤ 100 nM.

In the case of `NS(=O)(=O)c1cccc(-c2ccc3c(-c4c(-c5ccccn5)nn5c4CCC5)ccnc3c2)c1` [Example 96, 3-[4-(2-Pyridin-2-yl-5,6-dihydro-4H-pyrrolo[1,2-b]pyrazol-3-yl)-quinolin-7-yl]-benzenesulfonamide], the IC50 is ≤ 100 nM.

As for `NS(=O)(=O)c1ccccc1-c1ccc2c(-c3c(-c4ccccn4)nn4c3CCC4)ccnc2c1` [Example 97, 2-[4-(2-Pyridin-2-yl-5,6-dihydro-4H-pyrrolo[1,2-b]pyrazol-3-yl)-quinolin-7-yl]-benzenesulfonamide], the IC50 is ≤ 1000 nM.

Turning to `c1ccc(-c2nn3c(c2-c2ccnc4cc(-n5ccnc5)ccc24)CCC3)nc1` [Example 98, 7-Imidazol-1-yl-4-(2-pyridin-2-yl-5,6-dihydro-4H-pyrrolo[1,2-b]pyrazol-3-yl)quinoline Ditrifluoroacetic Acid], the IC50 was ≤ 1000 nM.

Consider `c1ccc(-c2nn3c(c2-c2ccnc4cc(-n5cncn5)ccc24)CCC3)nc1` [Example 99, 4-(2-Pyridin-2-yl-5,6-dihydro-4H-pyrrolo[1,2-b]pyrazol-3-yl)-7-[1,2,4]triazol-1-yl-quinoline ditrifluoroacetic Acid], for which the half-inhibitory concentration (IC50) was ≤ 1000 nM.

For `c1ccc(-c2nn3c(c2-c2ccnc4cc(-n5cccn5)ccc24)CCC3)nc1` [Example 100, 7-Pyrazol-1-yl-4-(2-pyridin-2-yl-5,6-dihydro-4H-pyrrolo[1,2-b]pyrazol-3-yl)quinoline Trifluoroacetic Acid], the half-maximal inhibitory concentration (IC50) was ≤ 100 nM.

For the compound `c1ccc(-c2nn3c(c2-c2ccnc4cc(-n5ccnn5)ccc24)CCC3)nc1` [Example 101, 4-(2-pyridin-2-yl-5,6-dihydro-4H-pyrrolo[1,2-b]pyrazol-3-yl-)-7-[1,2,3]triazol-1-yl-quinoline ditrifluoroacetic Acid], the half-inhibitory concentration (IC50) was ≤ 1000 nM.

For the compound `CC(C)(C)OC(=O)N1CCN(c2ccc3c(-c4c(-c5ccccn5)nn5c4CCC5)ccnc3c2)CC1` [Example 102, 4-[4-(2-Pyridin-2-yl-5,6-dihydro-4H-pyrrolo[1,2-b]pyrazol-3-yl)-quinolin-7-yl]-piperazine-1-carboxylic Acid tert-Butyl Ester], the 50% inhibitory concentration (IC50) was ≤ 10000 nM.

In the case of `c1ccc(-c2nn3c(c2-c2ccnc4cc(N5CCCCC5)ccc24)CCC3)nc1` [Example 103, 7-Piperidin-1-yl-4-(2-pyridin-2-yl-5,6-dihydro-4H-pyrrolo[1,2-b]pyrazol-3-yl)-quinoline], the concentration for half-maximal inhibition (IC50) is ≤ 1000 nM.

Take `O=S1(=O)CCN(c2ccc3c(-c4c(-c5ccccn5)nn5c4CCC5)ccnc3c2)CC1` [Example 104, 7-(1,1-Dioxo-1λ^6-thiomorph-olin-4-yl)-4-(2-pyridin-2-yl-5,6-dihydro-4H-pyrrolo[1,2-b]pyrazol-3-yl)-quinoline]: the IC50 was ≤ 10000 nM.

`COC(=O)CCc1ccc(-c2ccc3c(-c4c(-c5ccccn5)nn5c4CCC5)ccnc3c2)cc1` [Example 106, 3-{4-[4-(2-pyridin-2-yl-5,6-dihydro-4H-pyrrolo[1,2-b]pyrazol-3-yl-)quinolin-7-yl]phenyl}propionic Acid Methyl Ester]: the concentration for half-maximal inhibition (IC50) was ≤ 100 nM.

Take `NC(=O)CCc1ccc(-c2ccc3c(-c4c(-c5ccccn5)nn5c4CCC5)ccnc3c2)cc1` [Example 107, 3-{4-[4-(2-Pyridin-2-yl-5,6-dihydro-4H-pyrrolo[1,2-b]pyrazol-3-yl)quinolin-7-yl]phenyl}propionamide]: the IC50 is ≤ 100 nM.

Take `CN(C)CCOc1ccc(-c2ccc3c(-c4c(-c5ccccn5)nn5c4CCC5)ccnc3c2)cc1` [Example 108, Dimethyl-(2-{4-[4-(2-Pyridin-2-yl-5,6-dihydro-4H-pyrrolo[1,2-b]pyrazol-3-yl)quinolin-7-yl]phenoxy}ethyl)amine Ditrifluoroacetic Acid]: the IC50 was ≤ 100 nM.

Take `c1ccc(-c2nn3c(c2-c2ccnc4cc(-c5ccc(OCCN6CCOCC6)cc5)ccc24)CCC3)nc1` [Example 109, 7-[4-(2-Morpholin-4-yl-ethoxy)phenyl]-4-(2-Pyridin-2-yl-5,6-dihydro-4H-pyrrolo[1,2-b]pyrazol-3-yl)quinoline Ditrifluoroacetic Acid]: the half-inhibitory concentration (IC50) was ≤ 100 nM.

As to `c1ccc(-c2nn3c(c2-c2ccnc4cc(-c5ccc(OCCN6CCCCC6)cc5)ccc24)CCC3)nc1` [Example 110, 7-[4-(2-Piperidin-1-yl-ethoxy)phenyl]-4-(2-Pyridin-2-yl-5,6-dihydro-4H-pyrrolo[1,2-b]pyrazol-3-yl)quinoline Ditrifluoroacetic Acid], the IC50 was ≤ 100 nM.

As for `c1ccc(-c2nn3c(c2-c2ccnc4cc(-c5ccc(OCCN6CCCC6)cc5)ccc24)CCC3)nc1` [Example 111, 4-(2-Pyridin-2-yl-5,6-dihydro-4H-pyrrolo[1,2-b]pyrazol-3-yl)-7-[4-(2-pyrrolidin-1-yl-ethoxy)phenyl] quinoline Ditrifluoroacetic Acid], the half-maximal inhibitory concentration (IC50) is ≤ 100 nM.

As to `c1ccc(-c2nn3c(c2-c2ccnc4cc(-c5ccc(OCCCN6CCCCC6)cc5)ccc24)CCC3)nc1` [Example 112, 7-[4-(3-Piperdin-1-yl-propoxy)phenyl]-4-(2-Pyridin-2-yl-5,6-dihydro-4H-pyrrolo[1,2-b]pyrazol-3-yl)quinoline Ditrifluoroacetic Acid], the IC50 was ≤ 100 nM.

Turning to `CN(C)CCCOc1ccc(-c2ccc3c(-c4c(-c5ccccn5)nn5c4CCC5)ccnc3c2)cc1` [Example 113, Dimethyl-(3-{4-[4-(2-Pyridin-2-yl-5,6-dihydro-4H-pyrrolo[1,2-b]pyrazol-3-yl)quinolin-7-yl]phenoxy}propyl)amine Ditrifluoroacetic Acid], the IC50 was ≤ 100 nM.

As to `c1ccc(-c2nn3c(c2-c2ccnc4cc(-c5ccc(OCCCN6CCOCC6)cc5)ccc24)CCC3)nc1` [Example 114, 7-[4-(3-Morpholin-4-yl-propoxy)phenyl]-4-(2-Pyridin-2-yl-5,6-dihydro-4H-pyrrolo[1,2-b]pyrazol-3-yl)quinoline Ditrifluoroacetic Acid], the 50% inhibitory concentration (IC50) is ≤ 100 nM.

With `c1ccc(-c2nn3c(c2-c2ccnc4cc(-c5ccc(OCCCN6CCCC6)cc5)ccc24)CCC3)nc1` [Example 115, 4-(2-Pyridin-2-yl-5,6-dihydro-4H-pyrrolo[1,2-b]pyrazol-3-yl)-7-[4-(3-pyrrolidin-1-yl-propoxy)phenyl] quinoline Ditrifluoroacetic Acid], the IC50 was ≤ 100 nM.
